The text below walks through data of US20260137703A1, “2-AMINO-PYRIDO[2,3-D]PYRIMIDIN-7(8H)-ONE AND 7-AMINO-1-PYRIMIDO[4,5-D]PYRIMIDIN-2(1 H)-ONE DERIVATIVES AS EGFR INHIBITORS FOR THE TREATMENT OF CANCER” (Cancer Research Technology Limited, priority 2022, published 2026).

One may read the IC50 as the concentration needed to halve the response being measured.

Structures can show the parent of a compound that is named as a salt.

The target in assay [1] is CtermHisTag-mEGFR Wild type (Homo sapiens, UniProt P00533). The experiment in a line: biochemical.
Chain of CtermHisTag-mEGFR Wild type (P00533 whole entry): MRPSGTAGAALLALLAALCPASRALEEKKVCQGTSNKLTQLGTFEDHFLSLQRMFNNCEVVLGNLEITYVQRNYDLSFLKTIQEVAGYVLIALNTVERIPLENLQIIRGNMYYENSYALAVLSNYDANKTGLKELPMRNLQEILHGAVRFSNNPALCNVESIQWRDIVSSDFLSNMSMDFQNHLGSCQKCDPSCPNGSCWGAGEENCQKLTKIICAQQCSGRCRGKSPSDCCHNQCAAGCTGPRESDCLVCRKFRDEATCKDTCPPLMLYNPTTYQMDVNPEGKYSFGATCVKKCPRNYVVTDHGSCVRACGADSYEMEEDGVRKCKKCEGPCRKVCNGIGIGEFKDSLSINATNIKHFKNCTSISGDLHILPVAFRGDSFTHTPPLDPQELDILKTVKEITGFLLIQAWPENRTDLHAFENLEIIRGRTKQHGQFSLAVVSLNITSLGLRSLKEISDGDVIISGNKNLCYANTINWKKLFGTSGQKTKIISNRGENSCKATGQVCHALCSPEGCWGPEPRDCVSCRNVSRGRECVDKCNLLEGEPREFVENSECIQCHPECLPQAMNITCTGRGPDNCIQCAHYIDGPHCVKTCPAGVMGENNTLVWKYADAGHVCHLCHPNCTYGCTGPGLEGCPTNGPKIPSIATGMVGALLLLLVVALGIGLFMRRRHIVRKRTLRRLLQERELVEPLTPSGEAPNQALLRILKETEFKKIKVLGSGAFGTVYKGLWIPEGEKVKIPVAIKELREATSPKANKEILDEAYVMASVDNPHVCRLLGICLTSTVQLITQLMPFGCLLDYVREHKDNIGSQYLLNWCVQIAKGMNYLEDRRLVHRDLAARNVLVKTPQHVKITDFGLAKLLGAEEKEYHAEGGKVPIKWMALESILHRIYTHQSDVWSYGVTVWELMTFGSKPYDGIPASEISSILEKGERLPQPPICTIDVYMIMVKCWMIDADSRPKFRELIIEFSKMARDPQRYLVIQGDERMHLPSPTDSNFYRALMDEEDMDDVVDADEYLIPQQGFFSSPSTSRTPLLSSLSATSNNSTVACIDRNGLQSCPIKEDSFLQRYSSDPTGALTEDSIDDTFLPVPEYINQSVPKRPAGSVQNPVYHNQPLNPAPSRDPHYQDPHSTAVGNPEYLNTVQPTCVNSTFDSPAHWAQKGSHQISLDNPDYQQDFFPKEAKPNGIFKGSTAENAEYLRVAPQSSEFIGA
Assay [2] addresses T1, Phospho-EGFR (Tyr1068) in H1975 cells (Homo sapiens, UniProt P00533, L858R/T790M).
T1 construct: host or cells: H1975
The experiment in a line: HTRF pEGFR/total EGFR in H1975 cells. Format: cell-based. The conditions noted are these: ratio pEGFR/total EGFR, compound 3 hours. In outline:
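Readout is the phospho-EGFR (Tyr1068) to total EGFR HTRF ratio, expressed relative to 0 μM control. Adhered H1975 cells were exposed to compound for 3 hours at 0.1% DMSO, duplicate wells, then lysed for 30 min at room temperature before two-wavelength fluorescence reading.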
For orientation: TR-FRET usually uses a lanthanide donor and a delayed reading to cut background.

Assay [3] addresses T2, Phospho-EGFR (Tyr1068) in H1975 C797S cells (CRISPR-edited EGFR C797S) (Homo sapiens, UniProt P00533, C797S/L858R/T790M).
T2 construct: host or cells: H1975 C797S (CRISPR-edited)
Description: HTRF pEGFR/total EGFR in H1975 C797S cells. The format is cell-based. The conditions noted are these: ratio pEGFR/total EGFR, compound 3 hours. The method in brief: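 Readout is the HTRF-measured Tyr1068 phospho-EGFR to total EGFR ratio, normalised to the 0 μM control as percent. Preceding this, CRISPR-edited H1975 C797S cells, plated 24 h earlier, were exposed 3 h to duplicate compound doses in medium with 0.1% DMSO, then lysed on a shaker.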

Assay [4] addresses T3, Phospho-EGFR (Tyr1068) in A431 cells (Homo sapiens, UniProt P00533).
T3 construct: endogenous in cells; host or cells: A431
The experiment in a line: HTRF pEGFR/total EGFR in A431 cells with EGF stimulation. Format: cell-based. To be noted: ratio pEGFR/total EGFR, compound 2.5 hours then 100 ng/ml EGF 30 mins. The method in brief:
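Values are pEGFR(Tyr1068)/total EGFR HTRF ratios (665/620 nm) given as percent of the 0 μM control. Adhered A431 cells (20,000 per well, 24 h) had 2.5 h compound pretreatment in 0.1% DMSO, then 30 min of 100 ng/ml EGF before lysis.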

T1 sequence (P00533 25-1210 T790M/L858R): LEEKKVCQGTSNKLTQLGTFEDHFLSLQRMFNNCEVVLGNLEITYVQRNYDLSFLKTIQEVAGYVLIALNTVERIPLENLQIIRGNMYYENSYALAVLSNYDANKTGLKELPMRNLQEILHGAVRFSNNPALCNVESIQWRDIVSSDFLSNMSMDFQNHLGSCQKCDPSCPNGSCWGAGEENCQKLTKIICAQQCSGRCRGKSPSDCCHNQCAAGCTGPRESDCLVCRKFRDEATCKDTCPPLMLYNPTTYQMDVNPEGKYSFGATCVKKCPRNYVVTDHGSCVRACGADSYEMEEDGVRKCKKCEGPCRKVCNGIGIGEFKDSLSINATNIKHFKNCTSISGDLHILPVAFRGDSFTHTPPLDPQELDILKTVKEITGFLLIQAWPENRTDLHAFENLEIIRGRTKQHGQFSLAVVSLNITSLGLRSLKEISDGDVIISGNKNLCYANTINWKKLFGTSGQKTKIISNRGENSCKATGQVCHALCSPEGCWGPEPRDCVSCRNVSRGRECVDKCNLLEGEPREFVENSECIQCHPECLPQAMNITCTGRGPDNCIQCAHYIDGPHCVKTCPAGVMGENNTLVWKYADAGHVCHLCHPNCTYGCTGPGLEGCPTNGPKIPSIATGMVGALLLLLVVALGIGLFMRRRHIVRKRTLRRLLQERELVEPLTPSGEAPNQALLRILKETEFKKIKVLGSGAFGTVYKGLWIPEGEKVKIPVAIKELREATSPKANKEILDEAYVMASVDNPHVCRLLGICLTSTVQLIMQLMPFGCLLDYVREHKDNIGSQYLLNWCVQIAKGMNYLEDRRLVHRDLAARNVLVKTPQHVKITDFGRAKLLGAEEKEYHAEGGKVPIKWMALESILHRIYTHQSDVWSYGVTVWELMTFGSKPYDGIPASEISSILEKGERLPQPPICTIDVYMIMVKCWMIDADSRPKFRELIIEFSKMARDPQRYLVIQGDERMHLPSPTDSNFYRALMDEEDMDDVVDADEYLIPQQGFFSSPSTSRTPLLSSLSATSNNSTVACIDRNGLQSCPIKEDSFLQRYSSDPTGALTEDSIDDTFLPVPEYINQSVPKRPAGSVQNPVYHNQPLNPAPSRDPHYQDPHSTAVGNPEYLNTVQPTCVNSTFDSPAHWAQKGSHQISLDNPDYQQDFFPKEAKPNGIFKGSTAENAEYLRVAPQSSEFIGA
T3 sequence (P00533 25-1210): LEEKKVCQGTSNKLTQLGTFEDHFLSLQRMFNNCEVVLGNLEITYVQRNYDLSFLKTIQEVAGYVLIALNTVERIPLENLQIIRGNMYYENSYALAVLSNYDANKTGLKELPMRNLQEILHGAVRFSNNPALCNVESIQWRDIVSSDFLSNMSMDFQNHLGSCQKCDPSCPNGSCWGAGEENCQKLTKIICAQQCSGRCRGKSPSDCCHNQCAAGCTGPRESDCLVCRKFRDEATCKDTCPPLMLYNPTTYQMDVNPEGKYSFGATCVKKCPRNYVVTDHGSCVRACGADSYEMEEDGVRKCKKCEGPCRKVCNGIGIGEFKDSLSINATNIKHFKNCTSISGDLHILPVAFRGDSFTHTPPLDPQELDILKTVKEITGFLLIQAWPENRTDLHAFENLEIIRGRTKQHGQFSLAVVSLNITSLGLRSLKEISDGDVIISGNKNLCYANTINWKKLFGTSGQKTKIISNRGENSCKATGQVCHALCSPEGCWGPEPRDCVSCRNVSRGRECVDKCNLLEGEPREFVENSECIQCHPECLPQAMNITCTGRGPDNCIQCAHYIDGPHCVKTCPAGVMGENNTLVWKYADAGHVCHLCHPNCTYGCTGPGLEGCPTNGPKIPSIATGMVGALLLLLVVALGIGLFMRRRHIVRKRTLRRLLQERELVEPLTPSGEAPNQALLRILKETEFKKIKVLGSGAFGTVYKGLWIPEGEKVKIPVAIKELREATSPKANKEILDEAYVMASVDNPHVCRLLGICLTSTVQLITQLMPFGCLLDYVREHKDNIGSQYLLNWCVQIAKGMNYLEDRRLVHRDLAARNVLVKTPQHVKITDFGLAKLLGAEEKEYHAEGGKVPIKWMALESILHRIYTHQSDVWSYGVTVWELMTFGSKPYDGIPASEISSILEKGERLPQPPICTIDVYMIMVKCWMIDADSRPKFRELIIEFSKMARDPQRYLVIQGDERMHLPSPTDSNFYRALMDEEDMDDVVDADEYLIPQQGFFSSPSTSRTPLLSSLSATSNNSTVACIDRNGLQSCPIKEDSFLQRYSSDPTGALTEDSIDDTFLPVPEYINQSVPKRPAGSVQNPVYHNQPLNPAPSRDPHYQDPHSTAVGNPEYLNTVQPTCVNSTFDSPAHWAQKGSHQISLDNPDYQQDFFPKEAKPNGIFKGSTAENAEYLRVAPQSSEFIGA
T2 sequence (P00533 25-1210 T790M/C797S/L858R): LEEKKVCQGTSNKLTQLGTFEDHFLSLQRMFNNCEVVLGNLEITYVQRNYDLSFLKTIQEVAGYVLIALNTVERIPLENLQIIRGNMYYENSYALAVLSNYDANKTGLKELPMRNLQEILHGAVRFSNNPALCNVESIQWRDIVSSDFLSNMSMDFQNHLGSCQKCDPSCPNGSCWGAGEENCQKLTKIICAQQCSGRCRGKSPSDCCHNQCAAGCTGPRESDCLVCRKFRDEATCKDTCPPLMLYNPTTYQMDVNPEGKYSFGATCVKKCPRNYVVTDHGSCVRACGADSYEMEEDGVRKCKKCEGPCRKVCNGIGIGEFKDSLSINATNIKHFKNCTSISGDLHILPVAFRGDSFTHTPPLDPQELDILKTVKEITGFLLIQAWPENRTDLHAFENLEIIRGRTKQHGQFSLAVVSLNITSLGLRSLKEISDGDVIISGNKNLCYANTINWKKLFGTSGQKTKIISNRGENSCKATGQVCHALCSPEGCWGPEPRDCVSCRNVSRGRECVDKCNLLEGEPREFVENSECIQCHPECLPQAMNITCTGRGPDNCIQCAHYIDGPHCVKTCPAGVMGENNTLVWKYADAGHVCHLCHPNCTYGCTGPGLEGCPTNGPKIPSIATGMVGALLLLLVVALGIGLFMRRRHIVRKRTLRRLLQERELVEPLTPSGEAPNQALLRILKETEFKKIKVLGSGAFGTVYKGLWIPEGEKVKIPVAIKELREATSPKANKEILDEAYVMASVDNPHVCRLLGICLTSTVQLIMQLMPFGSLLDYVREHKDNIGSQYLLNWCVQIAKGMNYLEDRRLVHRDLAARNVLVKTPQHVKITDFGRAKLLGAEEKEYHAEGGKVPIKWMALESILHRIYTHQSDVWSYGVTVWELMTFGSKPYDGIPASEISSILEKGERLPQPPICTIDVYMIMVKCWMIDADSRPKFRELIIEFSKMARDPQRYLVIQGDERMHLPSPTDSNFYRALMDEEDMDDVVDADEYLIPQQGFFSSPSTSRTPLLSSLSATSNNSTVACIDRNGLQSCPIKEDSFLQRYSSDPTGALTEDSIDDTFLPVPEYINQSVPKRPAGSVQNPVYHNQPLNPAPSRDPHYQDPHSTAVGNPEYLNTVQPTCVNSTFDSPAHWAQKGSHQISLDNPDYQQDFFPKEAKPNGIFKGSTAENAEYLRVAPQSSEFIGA

As to `C#Cc1cc(=O)n(C)c2nc(Nc3ccc(N4CCN(C)CC4)cc3OC)ncc12` [Example 49, 5-Ethynyl-2-{[2-methoxy-4-(4-methylpiperazin-1-yl)phenyl]amino}-8-methylpyrido[2,3-d]pyrimidin-7-one], the IC50 in assay [1] was less than 1 µM; in assay [2], less than 0.5 µM; in assay [3] it was 0.5 to 1 µM; in assay [4], more than 3 µM.
On to `C#Cc1cc(=O)n(-c2ccc([N+](=O)[O-])cc2)c2nc(Nc3ccccc3OC)ncc12` [Example 60, 5-Ethynyl-2-((2-methoxyphenyl)amino)-8-(4-nitrophenyl)pyrido[2,3-d]pyrimidin-7(8H)-one], for which the IC50 in assay [1] is 1 to 10 µM; in assay [2] it was more than 3 µM; in assay [3] it was more than 3 µM; in assay [4], more than 3 µM.
Turning to `C=Cc1cc(=O)n(-c2ccc(OC)cc2OC)c2nc(Nc3ccc(N(C)CCN(C)C)cc3)ncc12` [Example 155, 8-(2,4-dimethoxyphenyl)-2-[(4-{[2-(dimethylamino)ethyl](methyl)amino}phenyl)amino]-5-ethenylpyrido[2,3-d]pyrimidin-7-one], the IC50 was 1 to 10 µM in assay [1], more than 3 µM in assay [2], more than 3 µM in assay [3] and more than 3 µM in assay [4].
As to `C#Cc1cc(=O)n(C2CCCC2)c2nc(Nc3cccc(CN4CCC(CS(C)(=O)=O)CC4)c3)ncc12` [Example 183], the IC50 was more than 10 µM in assay [1], more than 3 µM in assay [2], more than 3 µM in assay [3] and more than 3 µM in assay [4].
With `C#Cc1cc(=O)n(-c2cccc([N+](=O)[O-])c2)c2nc(Nc3ccccc3OC)ncc12` [Example 54, 5-Ethynyl-2-((2-methoxyphenyl)amino)-8-(3-nitrophenyl)pyrido[2,3-d]pyrimidin-7(8H)-one], the IC50 was more than 10 µM in assay [1], more than 3 µM in assay [2], more than 3 µM in assay [3] and more than 3 µM in assay [4].
As to `C#Cc1c(C)c(=O)n(Cc2ccccn2)c2nc(Nc3ccc(N4CCN(C)CC4)cc3)ncc12` [Example 178, 5-Ethynyl-6-methyl-2-{[4-(4-methylpiperazin-1-yl)phenyl]amino}-8-(pyridin-2-ylmethyl)pyrido[2,3-d]pyrimidin-7-one], the IC50 in assay [1] was less than 1 µM; in assay [2], 0.5 to 1 µM; in assay [3], 0.5 to 1 µM; in assay [4], more than 3 µM.
As to `C#Cc1c(-c2ccncc2Cl)c(=O)n(C)c2nc(Nc3ccc(N(C)CCN(C)C)cc3)ncc12` [Example 139, 6-(3-chloropyridin-4-yl)-2-[(4-{[2-(dimethylamino)ethyl](methyl)amino}phenyl)amino]-5-ethynyl-8-methylpyrido [2,3-d]pyrimidin-7-one], the IC50 is less than 1 µM in assay [1], 1 to 3 µM in assay [2], 1 to 3 µM in assay [3] and more than 3 µM in assay [4].
As for `C#Cc1cc(=O)n(CC2CCCO2)c2nc(Nc3ccc(N4CCN(C)CC4)cc3)ncc12` (stereo not drawn) [Example 72, 5-Ethynyl-2-((4-(4-methylpiperazin-1-yl)phenyl)amino)-8-((tetrahydrofuran-2-yl)methyl)pyrido[2,3-d]pyrimidin-7(8H)-one], the IC50 in assay [1] is less than 1 µM; in assay [2], 0.5 to 1 µM; in assay [3] it was less than 0.5 µM; in assay [4], more than 3 µM.
Consider `C#Cc1cc(=O)n(C2CCCCC2)c2nc(Nc3ccc(N4CCN(C)CC4)cc3)ncc12` [Example 68, 8-Cyclohexyl-5-ethynyl-2-((4-(4-methylpiperazin-1-yl)phenyl)amino)pyrido[2,3-d]pyrimidin-7(8H)-one], for which the 50% inhibitory concentration (IC50) in assay [1] is less than 1 µM; in assay [2], less than 0.5 µM; in assay [3], 0.5 to 1 µM; in assay [4], 1 to 3 µM.
Consider `C#Cc1cc(=O)n(-c2ccc(NC(C)=O)cc2)c2nc(Nc3ccccc3OC)ncc12` [Example 62, N-(4-(5-Ethynyl-2-((2-methoxyphenyl)amino)-7-oxopyrido[2,3-d]pyrimidin-8(7H)-yl)phenyl)acetamide], for which the IC50 in assay [1] is 1 to 10 µM; in assay [2], more than 3 µM; in assay [3] it was more than 3 µM; in assay [4], more than 3 µM.
As for `C#Cc1cc(=O)n(-c2ccccc2)c2nc(Nc3cnn(C4CCN(C)CC4)c3)ncc12` [Example 19, 5-Ethynyl-2-{[1-(1-methylpiperidin-4-yl)pyrazol-4-yl]amino}-8-phenylpyrido[2,3-d]pyrimidin-7-one], the IC50 in assay [1] was less than 1 µM; in assay [2], less than 0.5 µM; in assay [3], 0.5 to 1 µM; in assay [4], more than 3 µM.
Consider `C#Cc1cc(=O)n(C2CCCC2)c2nc(Nc3cccc(CN4CC(CS(C)(=O)=O)C4)c3)ncc12` [Example 181], for which the half-maximal inhibitory concentration (IC50) in assay [1] was more than 10 µM; in assay [2], more than 3 µM; in assay [3], more than 3 µM; in assay [4], more than 3 µM.
As for `C#Cc1cc(=O)n(-c2ccccc2)c2nc(Nc3ccc(N4CCN(CC)CC4)cc3)ncc12` [Example 15, 2-{[4-(4-Ethylpiperazin-1-yl)phenyl]amino}-5-ethynyl-8-phenylpyrido[2,3-d]pyrimidin-7-one], the IC50 was less than 1 µM in assay [1], less than 0.5 µM in assay [2], less than 0.5 µM in assay [3] and more than 3 µM in assay [4].
In the case of `C#Cc1cc(=O)n([C@@H]2CCCN(C(=O)CC)C2)c2nc(Nc3ccc(N(C)CCN(C)C)cc3)ncc12` [Example 77, (R)-2-((4-((2-(Dimethylamino)ethyl)(methyl)amino)phenyl)amino)-5-ethynyl-8-(1-propionylpiperidin-3-yl)pyrido[2,3-d]pyrimidin-7(8H)-one trifluoroacetic acid salt], the IC50 is more than 10 µM in assay [1], more than 3 µM in assay [2], more than 3 µM in assay [3] and more than 3 µM in assay [4].
With `C#Cc1cc(=O)n(CC2CCOC2)c2nc(Nc3ccc(N4CCN(C)CC4)cc3)ncc12` (stereo not drawn) [Example 70, 5-Ethynyl-2-((4-(4-methylpiperazin-1-yl)phenyl)amino)-8-((tetrahydrofuran-3-yl)methyl)pyrido[2,3-d]pyrimidin-7(8H)-one], the IC50 in assay [1] is less than 1 µM; in assay [2] it was less than 0.5 µM; in assay [3], less than 0.5 µM; in assay [4], more than 3 µM.
In the case of `C#Cc1cc(=O)n2c3nc(ncc13)Nc1cccc(c1)OCCCC2` [Example 193, 1^5-Ethynyl-1^7,1^8-dihydro-4-oxa-2-aza-1(2,8)-pyrido[2,3-d]pyrimidina-3(1,3)-benzenacyclooctaphan-1^7-one], the IC50 in assay [1] is more than 10 µM; in assay [2] it was less than 0.5 µM; in assay [3] it was 0.5 to 1 µM; in assay [4] it was more than 3 µM.
Turning to `C#Cc1c(C)c(=O)n(Cc2ccnn2C)c2nc(Nc3ccc(N4CCN(C)CC4)cc3)ncc12` [Example 112, 5-ethynyl-6-methyl-2-{[4-(4-methylpiperazin-1-yl)phenyl]amino}-8-[(2-methylpyrazol-3-yl)methyl]pyrido[2,3-d]pyrimidin-7-one], the IC50 in assay [1] is 1 to 10 µM; in assay [2], 1 to 3 µM; in assay [3], 1 to 3 µM; in assay [4], more than 3 µM.
In the case of `C#Cc1cc(=O)n(-c2ccccc2)c2nc(Nc3ccc(C4CCN(C)CC4)cc3)ncc12` [Example 21, 5-Ethynyl-2-{[4-(1-methylpiperidin-4-yl)phenyl]amino}-8-phenylpyrido[2,3-d]pyrimidin-7-one], the half-inhibitory concentration (IC50) in assay [1] is less than 1 µM; in assay [2], less than 0.5 µM; in assay [3], less than 0.5 µM; in assay [4], 1 to 3 µM.
As for `C#Cc1cc(=O)n(-c2ccccc2)c2nc(Nc3ccc(N4CCN(C)CC4)c(CO)c3)ncc12` [Example 31, 5-Ethynyl-2-{[3-(hydroxymethyl)-4-(4-methylpiperazin-1-yl)phenyl]amino}-8-phenylpyrido[2,3-d]pyrimidin-7-one], the IC50 is less than 1 µM in assay [1], less than 0.5 µM in assay [2], 0.5 to 1 µM in assay [3] and more than 3 µM in assay [4].
Consider `C#Cc1cc(=O)n(-c2ccc(NC(=O)C3CC3)cc2)c2nc(Nc3ccccc3OC)ncc12` [Example 66, N-(4-(5-Ethynyl-2-((2-methoxyphenyl)amino)-7-oxopyrido[2,3-d]pyrimidin-8(7H)-yl)phenyl)cyclopropanecarboxamide], for which the concentration for half-maximal inhibition (IC50) is 1 to 10 µM in assay [1], more than 3 µM in assay [2], more than 3 µM in assay [3] and more than 3 µM in assay [4].
As for `C#Cc1cc(=O)n([C@H]2CC[C@@H](NC(=O)CCC(=O)NC)CC2)c2nc(Nc3ccc(N4CCN(C)CC4)cc3)ncc12` [Example 98, N-Methyl-N′-[(1s,4s)-4-(5-ethynyl-2-{[4-(4-methylpiperazin-1-yl)phenyl]amino}-7-oxopyrido[2,3-d]pyrimidin-8-yl)cyclohexyl]succinamide], the IC50 in assay [1] is 1 to 10 µM; in assay [2] it was more than 3 µM; in assay [3], more than 3 µM; in assay [4], more than 3 µM.
